# Where “and” joins values, the source holds several entries; their conditions need not be identical. Identical values can stand only once.
# Tests used:
# [1] = tested on: cardiomyocytes; test: Intracellular thiol quantitation (glutathione S-bimane fluorescence, two-photon microscopy); assay type: cell-based, mouse; conditions: GSH (ethyl ester) 4 mM for 3 hrs, n=40
# Source text: The cationic potentiometric fluorescent dye tetramethylrhodamine methyl ester (TMRM) was used to monitor changes in ΔΨm as previously described. Cortassa, S. et al., Biophys. J., 87, 2060-2073 (2004). The production of the fluorescent glutathione adduct GSB from the reaction of cell permeant monochlorobimane (MCB) with reduced glutathione (GSH), catalyzed by glutathione S-transferase, was used to measure intracellular glutathione levels, as described. Cortassa, S. et al., Biophys. J., 87, 2060-2073 (2004). Experimental recordings started after exposing the cardiomyocytes to an experimental Tyrode's solution. […] Images were recorded using a two photon laser scanning microscope (Bio-Rad MRC-1024MP) with excitation at 740 nm (Tsunami Ti:Sa laser, Spectra-Physics). The red emission of […] was collected at 605±25 nm and the blue fluorescence of GSB was collected at its maximal emission (480 nm). Images were analyzed offline using ItnageJ software (Wayne Rasband, National Institutes of Health, http://rsb.info.nih.gov/ij/). […]
# HNO targets thiol groups on selective proteins. […] Pre-treatment with GSH enhanced intracellular thiol equivalents (+6±1.5% in fluorescence a.u. vs., controls, n=40, p<0.05), as determined by fluorescence assay of glutathione S-bimane production using two-photon microscopy. […]
# [2] = tested on: cAMP; test: cAMP FRET imaging in neonatal rat cardiomyocytes; assay type: cell-based; conditions: applied after AS
# Procedure: Primary cultures of cardiac ventricular myocytes from 1-3 days old Sprague Dawley rats (Charles River Laboratories, Wilmington, Mass.) were prepared as described. Dostal, D. E. et al., Am. J. Physiol., 263, […]-[…] (1992). Cells were transfected with a FRET-based sensor for cAMP (Zaccolo, M. et al., Science, 295, 1711-1715 (2002)) and imaged 48 hrs after transfection. During the experiments, cells were continuously perfused with HEPES buffered Ringer's modified saline (1 mmol/LCaCl2) at room temperature. Cells were imaged on an inverted Olympus IX50 microscope upon excitation at 430 nm. Mongillo, M. et al., Circ. Res., 98, 226-234 (2006). Image analysis was performed by using ImageJ (Rasband, W. S., ImageJ, National Institutes of Health, Bethesda, Md., USA). At each time point, FRET values were measured as the 480 nm/535 nm emission ratio intensity (R) and were normalized to the 480 nm/535 nm value at time 0s (R0). Agents that increase peak Ca^2+ transients coupled to increased sarcomere shortening often do so via a rise in intracellular cAMP and subsequent activation of protein kinase A ([…]. et al., Curr. Med. Chem., 10, 967-981 (2003). To test whether this applied to AS, real-time imaging of cAMP on transfected neonatal rat cardiomyocytes was performed with a cAMP FRET-probe. Zaccolo, M. et al., Science, 295, 1711-1715 (2002). Upon exposure to 1 mM AS, the FRET signal was unchanged (0.3%±0.1%, n=23, p=NS), whereas subsequent application of norepinephrine (10 μM) or phosphodiesterase inhibitor IBMX (100 μM) both increased it by 12% (p<10^-6) (FIG. 2A). Pre-treatment of adult mouse myocytes with the PKA inhibitor […]
smiles,measurement,setting,value
"CCOC(=O)CNC(=O)[C@H](CS)NC(=O)CC[C@H](N)C(=O)O [GSH, GSH ethyl ester]",increase of intracellular thiol equivalents (fluorescence a.u. vs. controls),[1],6% and 6±1.5%
CC(C)Cn1c(=O)n(C)c(=O)c2[nH]cnc21 [IBMX],increase of cAMP FRET signal,[2]; IBMX 100 μM,12%
NC[C@H](O)c1ccc(O)c(O)c1 [norepinephrine],increase of cAMP FRET signal,[2]; norepinephrine 10 μM,12%

# — patent US20160166604A1, “Thiol-Sensitive Positive Inotropes” (priority 2005, published 2016)
